Reference: PubChem BioAssay AID686998 (Broad Institute, 2013)
Where “and” joins values, the source holds several entries; their conditions need not be identical. Equal entries are not always repeated. Results filed as inconclusive are left out. Calls of active or inactive are those of the source.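 The calls were made as follows: active = falling signal with fitted half-maximal potency no higher than twice the top valid tested dose; inconclusive = poor fit quality, or flat fit spanning -70% to -30%; inactive = potency over limit, rising signal, or flat fit inside 30%.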

system: Cryptococcus neoformans growth, Alamar Blue, 24 h; assay: fungal growth arrest, C. neoformans – Alamar Blue, cherry-picks, dose response (AID 686998)

SMILES	IC50
COC(=O)C1=C(C)N(Cc2ccccc2)C(=S)NC1c1ccc(Br)cc1 (stereo not drawn)	10.2 µM
CCCNC(=O)[C@H]1[C@H](CO)[C@H]2Cn3c(cccc3=O)[C@@H]1N2C(=O)Nc1cc(F)ccc1F	68.5 µM
Cc1ccc(OCCn2c(=S)[nH]c3ccccc32)c(C(C)C)c1	0.913 µM
CCc1nc(N2CCCCC2C)c2oc3ccccc3c2n1 (stereo not drawn)	17.6 µM
O=C(NC(=S)NCC1COc2ccccc2O1)c1ccc(Cl)cc1 (stereo not drawn)	6.31 µM
S=C(NCCCc1ccccc1)Nc1ccccc1	8.77 µM
CCN1C(=S)N[C@@H](c2cccc(F)c2)C(C(=O)OC)=C1C	> 70 µM (inactive)
CN1c2ccc(-c3ccc(F)cc3)cc2[C@@H]2[C@@H](CCN2C(=O)C2CCOCC2)[C@@H]1CO	0.756 µM
COC(=O)C1=C(C)N(Cc2ccccc2)C(=S)NC1c1cccc(Br)c1 (stereo not drawn)	6.55 µM and 8.35 µM
CC(C)CC#Cc1ccc2c(c1)O[C@H](CN(C)C(=O)C1CCC1)[C@@H](C)CN([C@@H](C)CO)S2(=O)=O	43.5 µM
COc1ccc(CN(C)C[C@@H]2Oc3ccc(NS(C)(=O)=O)cc3CC(=O)N([C@H](C)CO)C[C@H]2C)cc1	48.6 µM
C[C@@H]1CN([C@@H](C)CO)S(=O)(=O)c2ccc(C3=CCCC3)cc2O[C@@H]1CN(C)Cc1ccccc1F	31.3 µM
O=C1CCC(C(=O)Nc2ccc([N+](=O)[O-])cc2)N1 (stereo not drawn)	10.1 µM
Cc1cc(Cl)ccc1NC(=S)NCc1ccc(F)cc1	15.5 µM
Cc1ccc(NC(=S)NCc2ccc(Cl)cc2)c(OC(F)F)c1	10.2 µM
C[C@H](CO)N1C[C@H](C)[C@H](CN(C)C(=O)NC2CCCCC2)OCCCC[C@H](C)Oc2ccc(NS(=O)(=O)c3cn(C)cn3)cc2C1=O	47.7 µM
C[C@H](CO)N1C[C@H](C)[C@@H](CN(C)S(=O)(=O)c2cn(C)cn2)Oc2c(NC(=O)Nc3ccccc3)cccc2C1=O	> 70 µM (inactive)
Fc1ccc(CNC(=S)NCc2cccc(Cl)c2)cc1	12.3 µM
O=C(COc1ccccc1)NCc1ccccc1	2.84 µM
CCOc1ccc(C(=O)NC(=S)Nc2ccccc2N2CCCCC2)cc1[N+](=O)[O-]	3.11 µM
CC(C)NC(=O)Nc1ccc2c(c1)C(=O)N([C@@H](C)CO)C[C@@H](C)[C@@H](CN(C)C(=O)NC1CCCCC1)OCCCC[C@H](C)O2	< 0.26 µM
Cc1cc(C(=O)Nc2cccc3c2O[C@@H](CN(C)S(=O)(=O)c2ccccc2)[C@@H](C)CN([C@@H](C)CO)C3=O)n(C)n1	61.2 µM
O=C(CSc1ncnc2c1cnn2-c1cccc(Cl)c1)NCC1CCCO1 (stereo not drawn)	39.1 µM

SMILES	IC50
COC(=O)C1=C(C)N(Cc2ccc(F)cc2)C(=S)NC1c1ccccc1 (stereo not drawn)	29.4 µM
CCC(=O)Nc1ccc2c(c1)OC[C@H](C)N(C(=O)c1ccc(F)cc1)C[C@@H](C)[C@@H](OC)CN(C)C2=O	48.2 µM
CC(=O)OC1(C)CC(C)C(=O)C(C(O)CC2CC(=O)NC(=O)C2)C1 (stereo not drawn)	< 0.26 µM
COC(=O)C1=C(C)N(Cc2ccc(Cl)cc2)C(=S)NC1c1cccc(Cl)c1 (stereo not drawn)	15.1 µM
CNC[C@H]1Oc2cc(Br)ccc2S(=O)(=O)N([C@H](C)CO)C[C@H]1C	> 70 µM (inactive)
COC(=O)C1=C(C)N(Cc2ccc(F)cc2)C(=S)NC1c1cccc(F)c1 (stereo not drawn)	22.1 µM
O=C(C[C@@H]1CC[C@@H]2[C@H](COC[C@@H](O)CN2C(=O)Nc2ccc(Cl)cc2)O1)NC1Cc2ccccc2C1	6.79 µM
CC(NC(=O)COc1ccccc1Cl)c1ccccc1 (stereo not drawn)	0.88 µM
COc1cccc(NC(=S)N2CCC(Cc3ccccc3)CC2)c1	8.22 µM
COCCN1C(=O)CCC1(C)C(=O)Nc1c(C)cccc1C (stereo not drawn)	30.2 µM
Cc1ccc(S(=O)(=O)N2CC[C@@H]3[C@H](CO)Nc4ccc(-c5ccccc5F)cc4[C@@H]32)cc1	0.997 µM
Cc1c(C(=O)NC(=S)Nc2ccc(N3CCOCC3)cc2)cccc1[N+](=O)[O-]	34.7 µM
Fc1cccc(CCN2C(=S)NC[C@@H]2Cc2ccccc2)c1	7.13 µM
COC(=O)C1=C(C)N(Cc2ccc(Br)cc2)C(=S)NC1c1ccc(F)cc1 (stereo not drawn)	5.35 µM
CNC(=O)CN(c1ccc(OC)cc1)S(=O)(=O)c1ccc(F)cc1	> 70 µM (inactive)
CCCCN1C(=S)NC[C@@H]1Cc1ccccc1	20.9 µM
Cc1noc(C)c1NC(=O)N(C)C[C@H]1OCCCC[C@@H](C)Oc2ccc(NC(=O)NC(C)C)cc2C(=O)N([C@H](C)CO)C[C@H]1C	> 70 µM (inactive)
O=C(c1cccnc1)N1C[C@H]2[C@@H](c3ccccc31)[C@@H](CO)N2C(=O)Nc1ccc(F)cc1	6.72 µM
NC(=S)N/N=C/c1ccc(-c2cc(Cl)ccc2Cl)o1	4.48 µM
CCc1ccc(C(=O)NC(=S)Nc2ccccc2N2CCOCC2)cc1	9.06 µM
CC(C)CC#Cc1cnc2c(c1)C(=O)N([C@@H](C)CO)C[C@H](C)[C@H](CN(C)C(=O)c1ccc3c(c1)OCO3)O2	5.12 µM
CCC(=O)Nc1ccc2c(c1)C(=O)N(C)C[C@H](OC)[C@@H](C)CN[C@H](C)CO2	> 70 µM (inactive)
COC(=O)C1=C(C)N(CC(C)C)C(=S)NC1c1ccc(Cl)cc1 (stereo not drawn)	9 µM and 18 µM

SMILES	IC50
CO[C@H]1CN(C)C(=O)c2ccc(NC(=O)NC(C)C)cc2OC[C@@H](C)NC[C@H]1C	1.08 µM
O=C(CN1CCOCC1)N[C@@H]1CC[C@@H](CCNC(=O)C2CCC2)O[C@@H]1CO	43.7 µM
Cc1ccc(C2CC(c3cccs3)=NN2C(=O)c2ccc(Br)o2)cc1 (stereo not drawn)	0.375 µM
COc1cc(CO)cc(I)c1O[C@H]1C=C(C(=O)NCCO)C[C@@H](N(CC2CCCCC2)C(=O)c2cc3ccccc3oc2=O)[C@@H]1O	0.479 µM
CCC(=O)N1[C@H](CN(C)C(C)=O)[C@@H](c2ccc(C3=CCCCC3)cc2)[C@@H]1CO	40.4 µM
COC(=O)C1=C(C)N(Cc2ccc(Cl)cc2)C(=S)NC1c1ccc(F)cc1 (stereo not drawn)	14.8 µM and 20.9 µM
CNC[C@H]1Oc2ncc(C#CCC(C)C)cc2C(=O)N([C@H](C)CO)C[C@H]1C	> 70 µM (inactive)
COc1ccc(C(=O)NC(=S)Nc2ccccc2N2CCOCC2)cc1[N+](=O)[O-]	26.1 µM
O=C(NC(=S)Nc1ccccc1N1CCOCC1)c1ccc(Br)cc1	6.23 µM
C[C@H](CO)N1C[C@H](C)[C@H](CN(C)CC2CCCCC2)Oc2c(NS(C)(=O)=O)cccc2C1=O	56.4 µM
Cc1noc(C)c1NC(=O)N(C)C[C@H]1Oc2ccc(NC(=O)C3CC3)cc2CC(=O)N([C@@H](C)CO)C[C@H]1C	> 70 µM (inactive)
CNC[C@@H]1Oc2ccc(NS(=O)(=O)c3ccc(Cl)cc3)cc2C(=O)N([C@H](C)CO)C[C@H]1C	46.4 µM
C/C=C/c1ccc([C@@H]2[C@H]3CN(C(=O)Nc4ccc(OC)cc4)CCCCN3[C@H]2CO)cc1	> 70 µM (inactive)
S=C(Nc1cccc(Cl)c1)Nc1ccccc1Oc1ccccc1	13.2 µM
COc1ccccc1/C=N/NC(=S)NCc1ccco1	12.8 µM
COc1ccc(CNC(=S)NCc2ccc(OC(C)C)cc2)cc1	30.4 µM
N#C[C@H]1[C@@H](c2ccc(C#CCC3CCCC3)cc2)[C@@H](CO)N1C(=O)c1ccccn1	25.9 µM
CO[C@@H]1CN(C)C(=O)c2cc(NC(=O)C3CCOCC3)ccc2OC[C@H](C)NC[C@@H]1C	67.4 µM
CC(C)NC(=O)Nc1ccc2c(c1)C(=O)N([C@H](C)CO)C[C@H](C)[C@H](CN(C)Cc1ccncc1)OCCCC[C@H](C)O2	54.6 µM
CC(=O)c1cccc(NC(=S)NC2CCCCCCC2)c1	10.7 µM
CC(NC(=O)COc1ccccc1-c1ccccc1)c1ccccc1 (stereo not drawn)	2.53 µM
COc1cccc(CNC(=O)COc2ccc(C(=O)c3ccccc3)cc2)c1	21 µM
